Reference: patent US11840535B2, “Alkynyl(hetero)aromatic compound for inhibiting protein kinase activity” (Shenzhen TargetRx, Inc., priority 2018, dated 2023)

Assays:
ABL = ABL (Homo sapiens (Human), UniProt P00519); assay: Biochemical kinase analysis, ABL
Experimental: (§1) Reagents and materials: ABL (ThermoFisher, Cat. No PV3585), ABL^T315I (Thermo Fisher, Cat. No. PR7429B), ATP (Sigma, Cat. No. A7699-1G), DMSO (Sigma, Cat. No. D2650), 96-well plate (Corning, Cat. No. 3365), 384-well plate (Greiner, Cat. No. 784076), buffer solution (Thermo Fisher, Cat. No. PR4876B).
(§2) Compound formulation: The test compounds were dissolved in DMSO to prepare a 20 mM stock solution. Before use, the compounds were diluted in DMSO to 0.1 mM, and diluted into 11 concentrations with a 3-fold gradient. When addition, diluentions of 4-fold final concentration were then made with buffer solution.
(§3) Kinase assay method: After preparing the buffer, the enzyme was mixed with pre-formulated and diluted compounds of different concentrations in duplicate for each concentration, and placed at room temperature for 30 minutes. The corresponding substrate and ATP were added thereto, and reacted at room temperature for 60 minutes (both a negative and a positive control were set). After the reaction, antibody was added for detection, Envision detection was carried out after 60 minutes incubation at room temperature, and data was collected. Data analysis and fitting were made according to XLfit5 software, wherein, A represents IC50≤5 nM, B represents IC50 is 5-50 nM, C represents IC50 is 50-100 nM, D represents IC50>100 nM.

ABL^T315I = ABL^T315I (Homo sapiens (Human), UniProt P00519, T315I); assay: Biochemical kinase analysis, ABL T315I
Experimental: as §1, §2, §3

Ba/F3 parental cells = assay: Cell proliferation analysis, Ba/F3 parental; assay type: cell-based; settings: Mus musculus, BaF3, 72 h; 8 ng/ml IL-3, 3 days, CellTiter-Glo
Experimental: (§4) The inhibitory effect of the example compounds on Ba/F3, Ba/F3 Bcr-Abl T315I cell activity was determined.
(§5) Materials and reagents: RPMI-1640 medium (GIBCO, Catalog No. A10491-01), fetal bovine serum (GIBCO, Catalog No. 10099141), antibiotics (Penicillin-Streptomycin), IL-3 (PeproTech), promycin; cell lines: Ba/F3, Ba/F3 Bcr-Abl T315I (Purchased from American type culture collection, ATCC), live cell detection kit […] (Promega, Catalog No. G7572), 96-well black wall transparent flat bottom cell culture plate (Corning, Catalog No. 3340).
(§6) Test method: 1. Preparation of cell plate: Ba/F3, Ba/F3 Bcr-Abl T315I cells were respectively seeded in 96-well plates, and 8 ng/ml IL-3 was added to the Ba/F3 cells, and the cell plates were placed in a carbon dioxide incubator and cultured overnight. 2. The test compounds were dissolved in DMSO, 9 compound concentrations were made with a 3.16-fold gradient dilution in triplicate. 3. Treatment of the cells with compounds: The compounds were transferred to the cell plate with a starting concentration of 10 μM. The cell plate was placed in a carbon dioxide incubator for 3 days. 4. Detection: CellTiter-Glo agent was added to the cell plate, and incubated at room temperature for 30 minutes to stabilize the luminous signal. PerkinElmer Envision multi-label analyzer was used for reading, wherein A represents […], B represents IC50 is 10-20 nM, C represents IC50 is 20-50 nM, D represents IC50 is 50-1000 nM, E represents IC50>1000 nM.

[1] = system: Ba/F3 Bcr-Abl T315I cells; assay: Cell proliferation analysis, Ba/F3 Bcr-Abl T315I; assay type: cell-based; settings: for IC50: Mus musculus, BaF3, 72 h, 3 days, CellTiter-Glo; for Selectivity [Ba/F3 (parental/Bcr-Abl ^T315I)]: ratio of Ba/F3 parental to Ba/F3 Bcr-Abl T315I
Experimental: as §4, §5, §6

Structure (SMILES): CCc1nc(C#Cc2cc(C(=O)Nc3ccc(CN4CCN(C)CC4)c(C(F)(F)F)c3)ccc2C)c2c(N)nccn12 [Example 1, 3-((8-amino-3-ethylimidazo[1,5-a]pyrazin-1-yl)ethynyl)-4-methyl-N-(4-((4-methylpiperazin-1-yl)methyl)-3-(trifluoromethyl)phenyl)benzamide]
- IC50 (ABL): ≤ 5 nM
- IC50 (ABL^T315I): ≤ 5 nM
- IC50 (Ba/F3 parental cells): > 1000 nM
- IC50 [1]: 20 to 50 nM
- Selectivity [Ba/F3 (parental/Bcr-Abl ^T315I)] [1]: 50~100

Structure (SMILES): CCc1nc(C#Cc2cc(C(=O)Nc3cccc(C(F)(F)F)c3)ccc2C)c2c(N)nccn12 [Example 2, 3-((8-amino-3-ethylimidazo[1,5-a]pyrazin-1-yl)ethynyl)-4-methyl-N-(3-(trifluoromethyl)phenyl)benzamide]
- IC50 (ABL): 5 to 50 nM
- IC50 (ABL^T315I): 50 to 100 nM

Structure (SMILES): Cc1ccc(C(=O)Nc2ccc(CN3CCN(C)CC3)c(C(F)(F)F)c2)cc1C#Cc1nc(C)n2ccnc(N)c12 [Example 3, 3-((8-amino-3-methylimidazo[1,5-a]pyrazin-1-yl)ethynyl)-4-methyl-N-(4-((4-methylpiperazin-1-yl)methyl)-3-(trifluoromethyl)phenyl)benzamide]
- IC50 (ABL): ≤ 5 nM
- IC50 (ABL^T315I): ≤ 5 nM

Structure (SMILES): Cc1ccc(C(=O)Nc2ccc(CN3CCN(C)CC3)c(C(F)(F)F)c2)cc1C#Cc1nc(C(C)C)n2ccnc(N)c12 [Example 4, 3-((8-amino-3-isopropylimidazo[1,5-a]pyrazin-1-yl)ethynyl)-4-methyl-N-(4-((4-methylpiperazin-1-yl)methyl)-3-(trifluoromethyl)phenyl)benzamide]
- IC50 (ABL): ≤ 5 nM
- IC50 (ABL^T315I): ≤ 5 nM
- IC50 (Ba/F3 parental cells): > 1000 nM
- IC50 [1]: 50 to 1000 nM
- Selectivity [Ba/F3 (parental/Bcr-Abl ^T315I)] [1]: 0~50

Structure (SMILES): CCn1cc(C#Cc2cc(C(=O)Nc3cccc(C(F)(F)F)n3)ccc2C)c2c(N)ncnc21 [Example 7, 3-((4-amino-7-ethyl-7H-pyrrolo[2,3-d]pyrimidin-5-yl)ethynyl)-4-methyl-N-(6-(trifluoromethyl)pyridin-2-yl)benzamide]
- IC50 (ABL): ≤ 5 nM
- IC50 (ABL^T315I): 5 to 50 nM

Structure (SMILES): CCn1cc(C#Cc2cccc(C(=O)Nc3cccc(C(F)(F)F)c3)c2)c2c(N)ncnc21 [Example 8, 3-((4-amino-7-ethyl-7H-pyrrolo[2,3-d]pyrimidin-5-yl)ethynyl)-N-(3-(trifluoromethyl)phenyl)benzamide]
- IC50 (ABL): ≤ 5 nM
- IC50 (ABL^T315I): ≤ 5 nM

Structure (SMILES): CCn1cc(C#Cc2cc(C(=O)Nc3ccc(CN(C)C)c(C(F)(F)F)c3)ccc2C)c2c(N)ncnc21 [Example 9, 3-((4-amino-7-ethyl-7H-pyrrolo[2,3-d]pyrimidin-5-yl)ethynyl)-N-(4-((dimethylamino)methyl)-3-(trifluoromethyl)phenyl)-4-methylbenzamide]
- IC50 (ABL): ≤ 5 nM
- IC50 (ABL^T315I): ≤ 5 nM
- IC50 (Ba/F3 parental cells): > 1000 nM
- IC50 [1]: 10 to 20 nM
- Selectivity [Ba/F3 (parental/Bcr-Abl ^T315I)] [1]: 150~500

Structure (SMILES): CCn1cc(C#Cc2cc(C(=O)Nc3cc(-n4cnc(C)c4)cc(C(F)(F)F)c3)ccc2C)c2c(N)ncnc21 [Example 10, 3-((4-amino-7-ethyl-7H-pyrrolo[2,3-d]pyrimidin-5-yl)ethynyl)-4-methyl-N-(3-(4-methyl-1H-imidazol-1-yl)-5-(trifluoromethyl)phenyl)benzamide]
- IC50 (ABL): 5 to 50 nM
- IC50 (ABL^T315I): 5 to 50 nM
- IC50 (Ba/F3 parental cells): > 1000 nM
- IC50 [1]: 10 to 20 nM
- Selectivity [Ba/F3 (parental/Bcr-Abl ^T315I)] [1]: 150~500

Structure (SMILES): Cc1ccc(NC(=O)c2ccc(C)c(C(F)(F)F)c2)cc1C#Cc1cn(C2CCCC2)c2ncnc(N)c12 [Example 20, N-(3-((4-amino-7-cyclopentyl-7H-pyrrolo[2,3-d]pyrimidin-5-yl)ethynyl)-4-methylphenyl)-4-methyl-3-(trifluoromethyl)benzamide]
- IC50 (ABL): 5 to 50 nM
- IC50 (ABL^T315I): 50 to 100 nM

Structure (SMILES): Cc1ccc(C(=O)Nc2cccc(C(F)(F)F)c2)cc1C#Cc1cn([C@H]2CC[C@H](O)CC2)c2ncnc(N)c12 [Example 23, 3-((4-amino-7-((1r,4r)-4-hydroxycyclohexyl)-7H-pyrrolo[2,3-d]pyrimidin-5-yl)ethynyl)-4-methyl-N-(3-(trifluoromethyl)phenyl)benzamide]
- IC50 (ABL): ≤ 5 nM
- IC50 (ABL^T315I): 5 to 50 nM
